Data from US11918582B2 (RAPT Therapeutics, Inc., priority 2021, dated 2024).
pIC50: −log10 of the molar value. Where a name gives a salt, the structure may show the parent alone.

Molecular target: T1, human HPK1 (MAP4K1) (Homo sapiens, UniProt Q92918)
T1 construct: Recombinant human HPK1 kinase domain was obtained from ThermoFisher (Cat. #PV6357) and SignalChem (Cat. #M23-11G); purchased ThermoFisher; SignalChem PV6357; M23-11G
T1 sequence (Q92918 17-274 limits assumed): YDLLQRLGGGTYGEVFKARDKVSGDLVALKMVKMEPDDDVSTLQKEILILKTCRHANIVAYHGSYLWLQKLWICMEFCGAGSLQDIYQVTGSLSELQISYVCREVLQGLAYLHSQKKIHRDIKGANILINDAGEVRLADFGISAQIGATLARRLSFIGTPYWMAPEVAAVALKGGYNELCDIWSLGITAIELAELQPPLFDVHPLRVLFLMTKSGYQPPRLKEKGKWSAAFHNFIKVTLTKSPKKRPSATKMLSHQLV
Assay: Biochemical assay for activity against HPK1 (ADP-Glo, MBP substrate)
Conditions: recombinant human HPK1 kinase domain, 1 nM enzyme, ADP-Glo luminescence
From the text: These compounds are made by the synthetic methods described earlier herein. Example 227 Biochemical Assay for Testing Compounds for Activity against HPK1
The enzymatic activity of human HPK1 (MAP4K1) was monitored in a biochemical assay in the presence or absence of compounds, using a peptide substrate (myelin basic protein, MBP), with an ADP-Glo assay kit (Promega, Cat. #V9103). An increase in phosphorylation of the peptide by HPK1 was indicative of its kinase activity.
Recombinant human HPK1 kinase domain was obtained from ThermoFisher (Cat. #PV6357) and SignalChem (Cat. #M23-11G). A 1 nM HPK1 kinase enzyme solution was prepared from the HPK1 stock received from the commercial supplier using an assay buffer containing 50 mM HEPES (4-(2-hydroxyethyl)-1-piperazineethanesulfonic acid) pH 7.5 (Fisher Scientific, Cat. #H1035), 150 mM NaCl (Fisher Scientific, Cat. #50843067), 3 mM TCEP-HCl (Tris(2-carboxyethyl)phosphine hydrochloride; Fisher Scientific, Cat. #PIPG82080), 10 mM MgCl2 (Fisher Scientific, Cat. #AM9530G), 0.005% Tween-20 (Fisher Scientific, Cat. #BP337500) and 0.01% BSA (bovine serum albumin; ThermoFisher, Cat. #15260037), in ultra-pure water. The final concentration of the assay buffer was 770 nM. A 5 mM stock solution of the peptide substrate was prepared using […] MBP (Myelin Basic Protein, Active Motif, Cat. #31314), 10 mM ATP (adenosine 5′-triphosphate; Sigma-Aldrich, Cat. #GE27-2056-01) and of assay buffer.
Test compounds were dissolved in DMSO (dimethyl sulfoxide) at 10 mM and then serial dilutions were prepared using a ViaFlow assist multichannel dispenser (Integra ViaFlo). 20 nL of test compounds at various concentrations were dispensed into a 1536-well assay plate (Corning Cat. #7247) using an Echo Nanoliter dispenser (Labcyte ECHO 550). […] of a 1 nM solution of HPK1 kinase enzyme diluted in assay buffer was added to the compound-containing plate using a Mantis Microliter dispenser (Formulatrix Mantis), covered with a lid, and incubated for 15 minutes at room temperature. 50 nL of a 5 mM stock solution of the peptide substrate (MBP) were added using the Echo Nanoliter dispenser. The plate was covered with a lid, centrifugated at 500 rpm for 1 minute and incubated for 2 hours at room temperature. […] of ADP-Glo reagent A was added using the Mantis Microliter dispenser, centrifugated at 500 rpm for 30 seconds and incubated for 40 minutes at room temperature. […] of ADP-Glo reagent B was added using the Mantis Microliter dispenser, centrifugated at 500 rpm for 30 seconds and incubated for 30 minutes at room temperature. Peptide phosphorylation was measured by luminescence on an Envision plate reader (PerkinElmer).
The HPK1 biochemical IC50 activity levels of the compounds of Examples 1-225 were tested using this assay and are shown in Table 2.

Row | Structure (SMILES) | pIC50
1 | COc1cc2c(cc1Nc1ncc3cnn(C[C@@H](C)NC(C)=O)c3n1)CN(C)CC2 [Example 97, N-[(1R)-2-[6-[(6-methoxy-2-methyl-3,4-dihydro-1H-isoquinolin-7-yl)amino]pyrazolo[3,4-d]pyrimidin-1-yl]-1-methyl-ethyl]acetamide] | 6.60 to 7.00
2 | COc1nc2c(cc1Nc1ncc3cnn(C[C@@H]4CCC(C)(C)N4C(C)=O)c3n1)CN(C)CC2 [Example 177, 1-[(5S)-5-[[6-[(2-methoxy-6-methyl-7,8-dihydro-5H-1,6-naphthyridin-3-yl)amino]pyrazolo[3,4-d]pyrimidin-1-yl]methyl]-2,2-dimethyl-pyrrolidin-1-yl]ethenone] | > 7.00
3 | CCC(=O)N1CCC[C@H]1Cn1ncc2cnc(Nc3cc4c(cc3OC)CCN(C)C4)nc21 [Example 112, (S)-1-(2-((6-((6-methoxy-2-methyl-1,2,3,4-tetrahydroisoquinolin-7-yl)amino)-1H-pyrazolo[3,4-d]pyrimidin-1-yl)methyl)pyrrolidin-1-yl)propan-1-one trifluoroacetate] | > 7.00
4 | COc1cc2c(cc1Nc1ncc3cnn([C@H]4CC[C@H](C(N)=O)CC4)c3n1)CN(C)CC2 [Example 38, (1r,4r)-4-(6-((6-methoxy-2-methyl-1,2,3,4-tetrahydroisoquinolin-7-yl)amino)-1H-pyrazolo[3,4-d]pyrimidin-1-yl)cyclohexane-1-carboxamide] | > 7.00
5 | COc1cc2c(cc1Nc1ncc3cnn([C@H]4C[C@H](CO)C4)c3n1)CN(C)CC2 [Example 65, trans-[3-[6-[(6-methoxy-2-methyl-3,4-dihydro-1H-isoquinolin-7-yl)amino]pyrazolo[3,4-d]pyrimidin-1-yl]cyclobutyl]methanol] | > 7.00
6 | COc1cc2c(cc1Nc1ncc3cnn(C[C@H]4[C@H](C)CCN4C(C)=O)c3n1)CN(C)CC2 (single isomer, unassigned) [Example 147] | 6.60 to 7.00
7 | COc1cc2c(cc1Nc1ncc3cnn([C@H]4C[C@](C)(C(=O)OC)C4)c3n1)CN(C)CC2 [Example 70, trans-methyl 3-[6-[(6-methoxy-2-methyl-3,4-dihydro-1H-isoquinolin-7-yl)amino]pyrazolo[3,4-d]pyrimidin-1-yl]-1-methyl-cyclobutanecarboxylate] | > 7.00
8 | COCCN1CCc2cc(OC)c(Nc3ncc4cnn(C[C@@H]5CCCN5C(C)=O)c4n3)cc2C1 [Example 197, (S)-1-(2-((6-((6-methoxy-2-(2-methoxyethyl)-1,2,3,4-tetrahydroisoquinolin-7-yl)amino)-1H-pyrazolo[3,4-d]pyrimidin-1-yl)methyl)pyrrolidin-1-yl)ethan-1-one Hydrochloride] | > 7.00
9 | COc1cc2c(cc1Nc1ncc3cnn(C4CCN(C(=O)C(F)(F)F)CC4)c3n1)CN(C)CC2 [Example 107, 2,2,2-trifluoro-1-(4-(6-((6-methoxy-2-methyl-1,2,3,4-tetrahydroisoquinolin-7-yl)amino)-1H-pyrazolo[3,4-d]pyrimidin-1-yl)piperidin-1-yl)ethan-1-one trifluroacetate] | 6.60 to 7.00
10 | COc1cc2c(cc1Nc1ncc3cnn(C4CCC(F)(F)CC4)c3n1)CN(C)CC2 [Example 192, N-[1-(4,4-difluorocyclohexyl)pyrazolo[3,4-d]pyrimidin-6-yl]-6-methoxy-2-methyl-3,4-dihydro-1H-isoquinolin-7-amine Hydrochloride] | > 7.00
11 | COC(=O)N[C@H](C)Cn1ncc2cnc(Nc3cc4c(cc3OC)CCN(C)C4)nc21 [Example 98, methyl N-[(1R)-2-[6-[(6-methoxy-2-methyl-3,4-dihydro-1H-isoquinolin-7-yl)amino]pyrazolo[3,4-d]pyrimidin-1-yl]-1-methyl-ethyl]carbamate] | 6.60 to 7.00
12 | COc1cc2c(cc1Nc1ncc3cnn(C[C@@H]4C[C@H](O)CN4C(C)=O)c3n1)CN(C)CC2 [Example 221, 1-((2S,4S)-4-hydroxy-2-((6-((6-methoxy-2-methyl-1,2,3,4-tetrahydroisoquinolin-7-yl)amino)-1H-pyrazolo[3,4-d]pyrimidin-1-yl)methyl)pyrrolidin-1-yl)ethan-1-one] | > 7.00

The remaining lines, values ahead:

Row | pIC50 | Structure (SMILES)
13 | > 7.00 | COc1cc2c(cc1Nc1ncc3cnn([C@H]4CC[C@@H](CO)CC4)c3n1)CN(C)CC2 [Example 67, cis-[4-[6-[(6-methoxy-2-methyl-3,4-dihydro-1H-isoquinolin-7-yl)amino]pyrazolo[3,4-d]pyrimidin-1-yl]cyclohexyl]methanol]
14 | > 7.00 | COc1cc2c(cc1Nc1ncc3cnn(C[C@H](C)NC(C)=O)c3n1)CN(C)CC2 [Example 93, N-[(1S)-2-[6-[(6-methoxy-2-methyl-3,4-dihydro-1H-isoquinolin-7-yl)amino]pyrazolo[3,4-d]pyrimidin-1-yl]-1-methyl-ethyl]acetamide]
15 | > 7.00 | COc1cc2c(cc1Nc1ncc3cnn(CC4(F)CC4)c3n1)CN(C)CC2 [Example 204, N-(1-((1-fluorocyclopropyl)methyl)-1H-pyrazolo[3,4-d]pyrimidin-6-yl)-6-methoxy-2-methyl-1,2,3,4-tetrahydroisoquinolin-7-amine]
16 | > 7.00 | COc1nc2c(cc1Nc1ncc3cnn(C[C@@H]4CCCN4C(C)=O)c3n1)CN(C)CC2 [Example 198]
17 | > 7.00 | COc1cc2c(cc1Nc1ncc3cnn([C@H]4CC[C@H](O)CC4)c3n1)CNCC2 [Example 152, trans-4-(6-((6-methoxy-1,2,3,4-tetrahydroisoquinolin-7-yl)amino)-1H-pyrazolo[3,4-d]pyrimidin-1-yl)cyclohexan-1-ol]
18 | > 7.00 | COc1cc2c(cc1Nc1ncc3cnn(C4CC5(CCN(C(C)=O)CC5)C4)c3n1)CN(C)CC2 [Example 81, 1-(2-(6-((6-methoxy-2-methyl-1,2,3,4-tetrahydroisoquinolin-7-yl)amino)-1H-pyrazolo[3,4-d]pyrimidin-1-yl)-7-azaspiro[3.5]nonan-7-yl)ethan-1-one]
19 | > 7.00 | COc1cc2c(cc1Nc1ncc3cnn([C@H]4CC[C@@H](O)CC4)c3n1)CN(C)CC2 [Example 39, (1s,4s)-4-(6-((6-methoxy-2-methyl-1,2,3,4-tetrahydroisoquinolin-7-yl)amino)-1H-pyrazolo[3,4-d]pyrimidin-1-yl)cyclohexan-1-ol]
20 | > 7.00 | COc1cc2c(cc1Nc1ncc3cnn(C[C@@H]4CCC[C@H]4C(N)=O)c3n1)CN(C)CC2 (racemic) [Example 159, racemic trans-2-[[6-[(6-methoxy-2-methyl-3,4-dihydro-1H-isoquinolin-7-yl)amino]pyrazolo[3,4-d]pyrimidin-1-yl]methyl]cyclopentanecarboxamide]
21 | > 7.00 | CN1CCc2ccc(Nc3ncc4cnn(C5CCCOC5)c4n3)cc2C1 (stereo not drawn) [Example 15, 2-methyl-N-(1-(tetrahydro-2H-pyran-3-yl)-1H-pyrazolo[3,4-d]pyrimidin-6-yl)-1,2,3,4-tetrahydroisoquinolin-7-amine]
22 | > 7.00 | CO[C@H]1CC[C@H](n2ncc3cnc(Nc4ccc5c(c4)CN(C)CC5)nc32)CC1 [Example 35, N-(1-((1r,4r)-4-methoxycyclohexyl)-1H-pyrazolo[3,4-d]pyrimidin-6-yl)-2-methyl-1,2,3,4-tetrahydroisoquinolin-7-amine]
23 | 6.60 to 7.00 | COc1cc2c(cc1Nc1ncc3cnn(C[C@@H]4C[C@@H](F)CN4C(C)=O)c3n1)CN(C)CC2 [Example 145, 1-[(2S,4R)-4-fluoro-2-[[6-[(6-methoxy-2-methyl-3,4-dihydro-1H-isoquinolin-7-yl)amino]pyrazolo[3,4-d]pyrimidin-1-yl]methyl]pyrrolidin-1-yl]ethan-1-one]
24 | > 7.00 | COc1cc2c(cc1Nc1ncc3cnn(C[C@H]4CCCN4S(C)(=O)=O)c3n1)CN(C)CC2 [Example 118, (R)-6-methoxy-2-methyl-N-(1-((1-(methylsulfonyl)pyrrolidin-2-yl)methyl)-1H-pyrazolo[3,4-d]pyrimidin-6-yl)-1,2,3,4-tetrahydroisoquinolin-7-amine trifluoroacetate]
